Measured values taken from ChEMBL document CHEMBL5512603, “Development of de-novo coronavirus 3-chymotrypsin-like protease (3CLpro) inhibitors since COVID-19 outbreak: A strategy to tackle challenges of persistent virus infection” (Eur J Med Chem, 2024).

Tests used:
[1] = test system: SARS-CoV-2; assay: Antiviral activity against SARS-CoV-2; assay type: functional, organism-based; conditions: Severe acute respiratory syndrome coronavirus 2
[2] = target: von Hippel-Lindau disease tumor suppressor-SARS-Cov-2 polyprotein (Severe acute respiratory syndrome coronavirus 2, UniProt P0DTD1+P40337); assay: PROTAC activity at SARS-CoV-2 Main protease/VHL (unknown origin) in SARS-CoV-2 infected african green monkey Vero cell assessed as inhibition of virus-mediated cytopathic effect measured after 72 hrs; assay type: cell-based
Chain of von Hippel-Lindau disease tumor suppressor-SARS-Cov-2 polyprotein (P40337 whole entry, other chains not shown): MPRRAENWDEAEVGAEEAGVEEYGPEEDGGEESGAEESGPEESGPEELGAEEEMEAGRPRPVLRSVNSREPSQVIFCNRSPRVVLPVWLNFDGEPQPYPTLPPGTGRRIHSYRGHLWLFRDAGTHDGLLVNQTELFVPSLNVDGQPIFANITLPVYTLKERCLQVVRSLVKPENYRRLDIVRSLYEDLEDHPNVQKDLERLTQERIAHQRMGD

[3] = target: T1, Replicase polyprotein 1ab (Severe acute respiratory syndrome coronavirus 2, UniProt P0DTD1); assay: Inhibition of SARS-CoV-2 3CLp using fluorescent substrate by FRET assay
[4] = test system: SARS-CoV-2; assay: Antiviral activity against SARS-CoV-2 infected in African green monkey Vero E6 cells assessed as inhibition of virus induced cytopathic effect by CellTiter-Glo luminescent cell viability assay; assay type: functional, organism-based; conditions: Severe acute respiratory syndrome coronavirus 2, Vero C1008
[5] = Cytotoxicity against African green monkey Vero E6 cells; assay type: toxicity, cell-based, Vero C1008; conditions: chlorocebus sabaeus
[6] = target: T1, Replicase polyprotein 1ab; assay: Inhibition of 2019-nCoV-2 3CLp using fluorescent substrate by FRET assay

SMILES | EC50 [1] [nM] | EC50 [2] [nM] | IC50 [3] [nM] | other results
COc1cc(O)c2c(c1)O[C@H](c1cc(O)c(O)c(O)c1)[C@@H](O)C2=O | 11500 | – | – | –
COc1cc(O)c2c(=O)c(O)c(-c3cc(O)c(O)c(O)c3)oc2c1 | 12600 | – | – | –
O=c1c(O)c(-c2cc(O)c(O)c(O)c2)oc2cc(OP(=O)(Oc3ccccc3)Oc3ccccc3)cc(O)c12 | 3150 | – | – | –
Cc1ncsc1-c1ccc(CNC(=O)[C@@H]2C[C@@H](O)CC2C(=O)[C@@H](NC(=O)CCC(=O)NCCOCCn2nnc(COC(=O)N[C@@H](CC(C)C)C(=O)N[C@@H](C[C@@H]3CCNC3=O)C(O)S(=O)(=O)O)c2C)C(C)(C)C)cc1 (some centres undefined) | – | 10100 | – | –
Cc1ncsc1-c1ccc(CNC(=O)[C@@H]2C[C@@H](O)CN2C(=O)[C@@H](NC(=O)CCOCCOCCOCCn2nnc(COc3ccc(OC(=O)N[C@@H](CC(C)C)C(=O)N[C@@H](C[C@@H]4CCNC4=O)C(O)S(=O)(=O)O)cc3)c2C)C(C)(C)C)cc1 (some centres undefined) | – | 210 | – | –
CCC[C@H]1C(=O)N2C[C@]3(C[C@H]2C#N)C(=O)Nc2ccc(cc23)CCCCCN1C(=O)c1cc2c(F)cc(F)c(F)c2[nH]1 | – | – | < 100 | EC50 [4]: < 100 nM
CC(C)(C)NC(=O)[C@@H](c1cccnc1)N(C(=O)c1cnco1)c1ccc(-c2ccccc2)cc1 | – | – | – | CC50 [5]: 67000 nM; IC50 [6]: 4970 nM
N#C[C@@H]1C[C@]23CN1C(=O)[C@H](c1ccccc1)N(C(=O)C1CN(c4ccc(F)cc4)N=N1)CCCCCc1ccc(c2c1)NC3=O (some centres undefined) | – | – | < 100 | EC50 [4]: > 1000 nM
CC(C)CCOc1cc(O)c2c(=O)c(O)c(-c3cc(O)c(O)c(O)c3)oc2c1 | 31500 | – | 1920 | –
CCOc1cc(O)c2c(=O)c(O)c(-c3cc(O)c(O)c(O)c3)oc2c1 | 51000 | – | 740 | –
CC(C)[C@H]1C(=O)N2C[C@]3(C[C@H]2C#N)C(=O)Nc2ccc(cc23)CCCCCN1C(=O)c1cc2c(F)cc(F)cc2[nH]1 | – | – | < 100 | EC50 [4]: < 100 nM
Cc1ncsc1-c1ccc(CNC(=O)[C@@H]2C[C@@H](O)CN2C(=O)[C@@H](NC(=O)CCOCCOCCOCCn2nnc(COc3ccc(OC(=O)N[C@@H](CC(C)C)C(=O)N[C@H](C=O)C[C@@H]4CCNC4=O)cc3)c2C)C(C)(C)C)cc1 | – | 80 | – | –
CC(C)(C)NC(=O)[C@@H](c1cnccn1)N(C(=O)c1ccco1)c1ccc(-c2ccccc2)cc1 | – | – | – | CC50 [5]: > 200000 nM; IC50 [6]: 280 nM
CC(C)[C@H]1C(=O)N2C[C@]3(C[C@H]2C#N)C(=O)Nc2ccc(cc23)CCCCCN1C(=O)C1CN(c2ccccc2)N=N1 (some centres undefined) | – | – | < 100 | EC50 [4]: < 100 nM
Cc1ncsc1-c1ccc(CNC(=O)[C@@H]2C[C@@H](O)CN2C(=O)[C@@H](NC(=O)CCOCCOCCOCCn2nnc(COC3CCC(OC(=O)N[C@@H](CC(C)C)C(=O)N[C@H](C=O)C[C@@H]4CCNC4=O)CC3)c2C)C(C)(C)C)cc1 (some centres undefined) | – | 350 | – | –
CC1COP(=O)(Oc2cc(O)c3c(=O)c(O)c(-c4cc(O)c(O)c(O)c4)oc3c2)OC1 (centres undefined) | 33400 | – | 6620 | –
O=C1c2c(O)cc(OP(=O)(Oc3ccccc3)Oc3ccccc3)cc2O[C@H](c2cc(O)c(O)c(O)c2)[C@H]1O | 9030 | – | – | –
O=c1c(O)c(-c2cc(O)c(O)c(O)c2)oc2cc(OCC3CCCC3)cc(O)c12 | 7560 | – | 2450 | –
CC(C)(C)NC(=O)[C@@H](c1cccnc1)N(C(=O)c1ccno1)c1ccc(-c2ccccc2)cc1 | – | – | – | CC50 [5]: > 200000 nM; IC50 [6]: 2470 nM
Cc1ncsc1-c1ccc(CNC(=O)[C@@H]2C[C@@H](O)CN2C(=O)[C@@H](NC(=O)CCOCCOCCOCCn2nnc(COC(=O)N[C@@H](CC(C)C)C(=O)N[C@H](C=O)C[C@@H]3CCNC3=O)c2C)C(C)(C)C)cc1 | – | 950 | – | –
Cc1ncsc1-c1ccc(CNC(=O)[C@@H]2C[C@@H](O)CN2C(=O)[C@@H](NC(=O)CCC(=O)NCCOCCn2nnc(COc3ccc(OC(=O)N[C@@H](CC(C)C)C(=O)N[C@H](C=O)C[C@@H]4CCNC4=O)cc3)c2C)C(C)(C)C)cc1 | – | 120 | – | –
Cc1ncsc1-c1ccc(CNC(=O)[C@@H]2C[C@@H](O)CN2C(=O)[C@@H](NC(=O)CCOCCOCCOCCn2nnc(COc3ccc(OC(=O)N[C@@H](CC(C)C)C(=O)N[C@H](CO)C[C@@H]4CCNC4=O)cc3)c2C)C(C)(C)C)cc1 | – | 750 | – | –
O=C1c2c(O)cc(O)cc2O[C@H](c2cc(O)c(O)c(O)c2)[C@H]1O [AMPELOPSIN] | 13600 | – | – | –
